Experimental data as given in patent US8389544B2, “Isoquinolone compounds as subtype-selective agonists for melatonin receptors MT1 and MT2” (The Hong Kong University of Science and Technology, priority 2007, dated 2013).

Key:
[1] = target: T1, MT1 receptor (Homo sapiens, UniProt P48039); experiment: Competitive [3H]melatonin binding assay, MT1; set-up: expressed in transfected cells
Procedure: (§1) Competitive ligand binding assays were performed to examine the receptor binding characteristics of the novel isoquinolone compounds. The assay measures the ability of the novel isoquinolone compounds to bind and displace the radiolabelled endogenous ligand, [^3H]melatonin. Increasing concentrations of the novel compounds are added to displace the [^3H]melatonin-bound to MT1 or MT2 receptor-expressing cells.
(§2) 4. Competitive Binding Assay
(§3) The ability of compounds to bind to MT1 and/or MT2 receptors is determined using radioligand binding assays. […] 48 hours following transfection, cells are harvested in binding buffer (50 mM Tris-HCl, 2 mM MgCl2, 1 mM EDTA, pH 7.4). 100,000 cells are incubated with 1 nM [^3H] melatonin (specific activity: 83 Ci/mmol; GE Healthcare) and appropriate concentrations (0.1 nM to 1 μM) of unlabelled ligands in a total volume of 100 μl in 96-well plates (PerkinElmer Life And Analytical Sciences, Inc., Boston, Mass.) for 2 hours at room temperature. Reactions are terminated by rapid filtration through a 96-well cell harvester onto 96-well GF/C filter mats. Filters are washed with 500 μl of ice-cold binding buffer, dried and sealed in a polyethylene bag with 3.5 ml of scintillation fluid and counted for tritium in a Microbeta Jet scintillation counter. […] Data are analyzed by nonlinear least-squares regression using GraphPad Prism 3.02.

[2] = system: MT1/293; experiment: MTT cytotoxicity assay, MT1/293 cells; type: cell-based; conditions: percentage of untreated control cells
Procedure: (§4) This assay evaluates the cytotoxic effects of the novel isoquinolone compounds based on the cellular viability under chronic treatments. Viable cells but not dead cells can turn the substrate into a colored product, which yields higher absorbance. […] A low percentage indicates low cytoviability (or high cytotoxicity).
(§5) 5. Cytotoxicity Test Using MTT Assay
(§6) Cells were seeded into clear 96-well plate at an appropriate density in 100 μl growth medium and were allowed to grow overnight. The novel isoquinolone compounds were diluted to desired concentrations using fresh growth medium, and these dilutions were used to replace the growth media in each well. After incubating for 24-96 h, 10 μl of the MTT labeling reagent (Roche) was added to each well and the cells were incubated in a CO2 incubator for 4 h. 100 μl solubilization buffer was then added into each well and incubated overnight for complete solubilization of the purple formazan crystals. […] Each condition was performed in triplicate in every experiment and the results were expressed as % of blank control±SD.

[3] = target: T1, MT1 receptor; experiment: CRE-Luc (luciferase reporter gene) assay, MT1; type: cell-based; set-up: expressed in transfected cells; conditions: HEK 293-pCREluc cells with MT1; inhibition of forskolin response
Procedure: (§7) The luciferase reporter gene assay offers another way to measure melatonin receptor activation. Cells expressing cAMP-responsive element-driven luciferase reporter gene (293-pCREluc) and either the MT1 or MT2 receptor are treated with forskolin (a substance which stimulates cAMP production as well as the subsequent luciferase gene expression) alone or with a novel isoquinolone compound. As melatonin receptor activation inhibits cAMP production, any suppression in the expression of luciferase leads to a decrease in enzymatic activities and a reduction in the amount of luminescence signal generated.
(§8) The luciferase assay, a reporter gene assay, was performed to confirm the ability of the invention to activate the melatonin receptors. Prior to the assay, HEK (human embryonic kidney) 293 cells are stably transfected with cAMP-responsive element-driven luciferase reporter gene (293-pCREluc) and cDNAs encoding MT1 or MT2 receptors. The cells are then exposed to the novel isoquinolone compounds, after which the substrate luciferin is added and the resulting luminescence measured.
(§9) Prior to the assay human embryonic kidney (HEK) 293 cells (CRL-1573, ATCC) is maintained at 37° C. in minimum essential medium (MEM) supplemented with 10% fetal bovine serum (FBS), 100 units/ml penicillin and 100 μg/ml streptomycin in a humidified atmosphere containing 5% CO2. Human embryonic kidney 293 cells stably transfected with cAMP-responsive element-driven luciferase reporter gene (293-pCREluc) are established and maintained in growth medium supplemented with 300 μg/ml G418 sulphate.
(§10) For luciferase assays, HEK-293 cells stably expressing pCRE-luciferase are seeded at a density of 15,000 cells/well into 96 well plates. Transfection is carried out using Lipofectamine Plus® reagent at 0.2 μl of both Plus and lipofectamine reagents with 50 ng cDNAs encoding MT1 or MT2 receptors per well. After a 3 hour transfection period at 37° C., 50 μl of DMEM with 20% fetal calf serum (FCS) is added into the wells and the plate is incubated at 37° C. for 48 h prior to 24 hour serum starvation. […]
(§11) Cells are harvested by replacing medium in the well by 50 μl luciferase lysis buffer. The Berthold microplate luminometer is maintained at 25° C. throughout the assay. Injector M connected to an empty tube and P connected to the drug tube are set to inject 25 μl of luciferin into appropriate wells. A 1.6 second delay time followed by a 1 second measuring time period is assigned to injector M, whereas injector P is measured for 10 seconds after luciferase substrate is introduced into the well. Results are expressed as relative luminescent units (RLU). Where indicated, agonist-induced activity is expressed as a percentage of the RLU obtained with forskolin.

[4] = system: Parental 293; experiment: MTT cytotoxicity assay, parental 293 cells; type: cell-based; conditions: percentage of untreated control cells
Procedure: as §4, §5, §6

[5] = target: T2, MT2 receptor (Homo sapiens, UniProt P49286); experiment: cAMP assay, MT2; type: cell-based; set-up: expressed in transfected cells; host or cells: COS-7 (monkey kidney fibroblast); conditions: inhibition of forskolin-stimulated cAMP production; MT2-expressing cells
T2 sequence (P49286 1-362): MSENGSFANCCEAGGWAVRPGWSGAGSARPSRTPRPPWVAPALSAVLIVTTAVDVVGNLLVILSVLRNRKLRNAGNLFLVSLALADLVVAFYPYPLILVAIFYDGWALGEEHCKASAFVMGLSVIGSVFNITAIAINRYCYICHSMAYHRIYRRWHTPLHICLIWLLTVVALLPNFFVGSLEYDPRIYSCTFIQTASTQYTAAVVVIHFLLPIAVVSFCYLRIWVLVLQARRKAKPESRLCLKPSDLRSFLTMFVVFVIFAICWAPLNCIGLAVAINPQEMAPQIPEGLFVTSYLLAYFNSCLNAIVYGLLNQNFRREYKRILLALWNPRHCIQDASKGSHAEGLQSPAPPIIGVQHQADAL

[6] = target: T2, MT2 receptor; experiment: Competitive [3H]melatonin binding assay, MT2; set-up: expressed in transfected cells; conditions: displacement of [3H]melatonin
Procedure: as §1, §2, §3

[7] = system: MT2/293; experiment: MTT cytotoxicity assay, MT2/293 cells; type: cell-based; conditions: percentage of untreated control cells
Procedure: as §4, §5, §6

[8] = target: T2, MT2 receptor; experiment: CRE-Luc (luciferase reporter gene) assay, MT2; type: cell-based; set-up: expressed in transfected cells; conditions: HEK 293-pCREluc cells with MT2; inhibition of forskolin response
Procedure: as §7, §8, §9, §10, §11

[9] = target: T1, MT1 receptor; experiment: cAMP assay, MT1; type: cell-based; set-up: expressed in transfected cells; host or cells: COS-7 (monkey kidney fibroblast); conditions: inhibition of forskolin-stimulated cAMP production; MT1-expressing cells

T1 sequence (P48039 whole entry): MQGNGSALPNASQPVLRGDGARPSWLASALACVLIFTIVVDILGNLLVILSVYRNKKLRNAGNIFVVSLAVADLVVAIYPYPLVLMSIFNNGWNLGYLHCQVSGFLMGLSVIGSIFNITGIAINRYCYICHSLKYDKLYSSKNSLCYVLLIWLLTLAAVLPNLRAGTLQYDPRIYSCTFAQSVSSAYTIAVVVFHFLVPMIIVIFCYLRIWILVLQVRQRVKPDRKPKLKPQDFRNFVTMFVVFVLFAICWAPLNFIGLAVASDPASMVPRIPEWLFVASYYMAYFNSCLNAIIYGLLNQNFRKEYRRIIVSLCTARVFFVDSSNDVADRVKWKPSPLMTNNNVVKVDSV

COc1ccc2[nH]c(I)c(CCNC(C)=O)c2c1 [Compound 2-IMT, 2-iodomelatonin, reference compound]
displacement of bound [3H]melatonin ([1]; b129, MT1 or MT2 receptor-expressing cells, both subtypes): 85-95% | Binding Assay MT1 % Inh ([1]; displacement of [3H]melatonin): 94.9% | MTT Assay MT1/293 % Viability ± SEM [2]: 113.3 ± 7.0% | CRE-Luc Assay MT1 % Inh ± SEM of 1 μM Fsk [3]: 73.0 ± 2.2% | MTT Assay Parental 293 % Viability ± SEM [4]: 105.9 ± 4.3% | cAMP Assay MT2 % Inh [5]: 51.9 ± 5.6% | Binding Assay MT2 % Inh [6]: 85.1% | MTT Assay MT2/293 % Viability ± SEM [7]: 119.5 ± 8.3% | CRE-Luc Assay MT2 % Inh ± SEM of 1 μM Fsk [8]: 61.9 ± 5.0% | cAMP Assay MT1 % Inh [9]: 48.5 ± 17.8%
